Measured values published in ChEMBL document CHEMBL3621073, “Bile acid amphiphiles with tunable head groups as highly selective antitubercular agents” (Medchemcomm, 2014).
Calls of active or inactive are those of the source. The rule behind the calls is not given here.

Legend:
A549 [1] = test: Cytotoxicity against human A549 cells assessed as effect on cell cycle phase at 100 uM by propidium iodide staining-based flow cytometry; conditions: a549, 100 µM
[2] = Therapeutic index, ratio of MHC50 for sheep RBC to MIC99 for Mycobacterium tuberculosis H37Rv; conditions: sheep red blood cells, read-out: TI
Lipid bilayer [3] = test: Binding affinity to PE:PG:LPS membrane assessed as membrane fluidity after 4 hrs
Escherichia coli [4] = test: Antibacterial activity against Escherichia coli MTCC 443 after 12 hrs by microplate reader assay in presence of EDTA; type: functional, organism-based
[5] = Therapeutic index, ratio of MHC50 for chicken RBC to MIC99 for Mycobacterium tuberculosis H37Rv; conditions: chicken red blood cells, read-out: TI
Lipid bilayer [6] = test: Binding affinity to PE:PG:LPS membrane assessed as dehydration of membrane after 4 hrs
Lipid bilayer [7] = test: Binding affinity to PE:PG:TDM membrane assessed as dehydration of membrane after 4 hrs
Escherichia coli [8] = test: Antibacterial activity against Escherichia coli MTCC 443 measured after 1 to 24 hrs by microplate reader assay; type: functional, organism-based
Escherichia coli [9] = test: Antibacterial activity against Escherichia coli MTCC 443 assessed as micelle-like structures by atomic force microscopic analysis; type: functional, organism-based
A549 [10] = test: Cytotoxicity against human A549 cells after 48 hrs by MTT assay; type: cell-based; conditions: A549, 48 h
Staphylococcus aureus [11] = test: Antibacterial activity against Staphylococcus aureus MTCC 737 after 12 hrs by microplate reader assay; type: functional; conditions: MTCC 737, 12 h
[12] = tested on: Mycolicibacterium smegmatis; test: Antimycobacterial activity against Mycobacterium smegmatis str. MC2 155 after 2 days by inverted microscopic analysis; type: functional; conditions: str. MC2 155, 48 h
Lipid bilayer [13] = test: Binding affinity to PE:PG:TDM membrane assessed as membrane fluidity after 4 hrs
Escherichia coli [14] = test: Antibacterial activity against Escherichia coli MTCC 443 assessed as effect on membrane permeabilization by using propidium iodide dye; type: functional, organism-based
[15] = Binding affinity to PE:PG membrane assessed as dehydration of membrane after 4 hrs
Staphylococcus aureus [16] = test: Antibacterial activity against Staphylococcus aureus MTCC 737 measured after 1 to 24 hrs by microplate reader assay; type: functional, organism-based
[17] = Binding affinity to PE:PG membrane assessed as membrane fluidity after 4 hrs
Staphylococcus aureus [18] = test: Antibacterial activity against Staphylococcus aureus MTCC 737 after 12 hrs by microplate reader assay in presence of EDTA; type: functional, organism-based
Staphylococcus aureus [19] = test: Antibacterial activity against Staphylococcus aureus MTCC 737 assessed as effect on membrane permeabilization by using propidium iodide dye; type: functional, organism-based
Escherichia coli [20] = test: Antibacterial activity against Escherichia coli MTCC 443 after 12 hrs by microplate reader assay; type: functional; conditions: MTCC 443, 12 h
Escherichia coli [21] = test: Antibacterial activity against Escherichia coli MTCC 443 assessed as leakage of large amount of cytoplasmic contents by atomic force microscopic analysis; type: functional, organism-based
THP-1 = test: Cytotoxicity against human THP1 cells after 48 hrs by MTT assay; type: cell-based; conditions: THP-1, 48 h
Escherichia coli [22] = test: Antibacterial activity against Escherichia coli MTCC 443 assessed as membrane surface indentations by atomic force microscopic analysis; type: functional, organism-based
[23] = tested on: Mycobacterium tuberculosis; test: Antimycobacterial activity against Mycobacterium tuberculosis H37Rv after 14 days by inverted microscopic analysis; type: functional; conditions: 336 h
[24] = tested on: Mycolicibacterium smegmatis; test: Antimycobacterial activity against Mycobacterium smegmatis str. MC2 155 after 6 to 96 hrs by inverted microscopic analysis relative to control; type: functional
Escherichia coli [25] = test: Antibacterial activity against Escherichia coli MTCC 443 assessed as effect membrane morphology by atomic force microscopic analysis; type: functional, organism-based
Escherichia coli [26] = test: Antibacterial activity against Escherichia coli MTCC 443 at 8 to 128 uM measured after 1 to 24 hrs by microplate reader assay; type: functional, organism-based
[27] = tested on: Mycobacterium tuberculosis; test: Antimycobacterial activity against Mycobacterium tuberculosis H37Rv after 14 days by inverted microscopic analysis in presence of plasma; type: functional; conditions: 336 h
Escherichia coli [28] = test: Antibacterial activity against Escherichia coli MTCC 443 assessed as effect membrane topology by atomic force microscopic analysis; type: functional, organism-based
[29] = tested on: Mycolicibacterium smegmatis; test: Antimycobacterial activity against Mycobacterium smegmatis str. MC2 155 after 2 days by inverted microscopic analysis in presence of plasma; type: functional; conditions: str. MC2 155, 48 h
[30] = tested on: Mycolicibacterium smegmatis; test: Antimycobacterial activity against Mycobacterium smegmatis str. MC2 155 assessed as effect on […] by using propidium iodide dye; type: functional, organism-based
Staphylococcus aureus [31] = test: Antibacterial activity against Staphylococcus aureus MTCC 737 at 16 to 256 uM measured after 1 to 24 hrs by microplate reader assay; type: functional, organism-based

In the case of `COC(=O)CC[C@@H](C)[C@H]1CC[C@H]2[C@@H]3[C@H](OC(=O)CN)C[C@@H]4C[C@H](OC(=O)CN)CC[C@]4(C)[C@H]3C[C@H](OC(=O)CN)[C@]12C.Cl.Cl.Cl`, the Activity (A549 [1]) is reported as “Non-toxic”, the selectivity ratio [2] is reported as < 20 and the Activity (Lipid bilayer [3]) is reported as “inactive”. For the same compound, the Activity (Escherichia coli [4]) was “Active”, the selectivity ratio [5] was < 20 and the Activity (Lipid bilayer [6]) was “Active”. The Activity (Lipid bilayer [7]) was “Active”, the Activity (Escherichia coli [8]) was “Dose-dependent effect” and the Activity (Escherichia coli [9]) was “Active”. The IC50 (A549 [10]) was 75.9 µM, the MIC99 (Staphylococcus aureus [11]) was 64 µM and the MIC99 [12] was > 50 µM. For the same compound, the Activity (Lipid bilayer [13]) was “inactive”, the Activity (Escherichia coli [14]) was “Active” and the Activity [15] was “Active”. For the same compound, the Activity (Staphylococcus aureus [16]) was “Dose-dependent effect”, the Activity [17] was “inactive” and the Activity (Staphylococcus aureus [18]) was “Active”. The Activity (Staphylococcus aureus [19]) was “Active”, the MIC99 (Escherichia coli [20]) was 32 µM and the Activity (Escherichia coli [21]) was “Active”. The IC50 (THP-1) was 38.2 µM, the Activity (Escherichia coli [22]) was “Active” and the MIC99 [23] was > 50 µM. The Activity [24] was “inactive”.

With `COC(=O)CC[C@@H](C)[C@H]1CC[C@H]2[C@@H]3[C@H](OC(=O)C[n+]4ccc(N(C)C)cc4)C[C@@H]4C[C@H](OC(=O)C[n+]5ccc(N(C)C)cc5)CC[C@]4(C)[C@H]3C[C@H](OC(=O)C[n+]3ccc(N(C)C)cc3)[C@]12C.[Cl-].[Cl-].[Cl-]` the Activity (A549 [1]) was “Non-toxic”, the Activity (Escherichia coli [25]) was “inactive” and the selectivity ratio [2] was > 160. The Activity (Escherichia coli [26]) was “inactive”, the Activity (Lipid bilayer [3]) was “inactive” and the Activity (Escherichia coli [4]) was “Active”. For the same compound, the selectivity ratio [5] was > 160, the MIC99 [27] was 6.25 µM and the Activity (Escherichia coli [28]) was “inactive”. The MIC99 [29] was 6.25 µM, the Activity (Lipid bilayer [7]) was “inactive” and the IC50 (A549 [10]) was > 200 µM. The MIC99 (Staphylococcus aureus [11]) was 256 µM, the MIC99 [12] was 1.56 µM and the Activity (Lipid bilayer [13]) was “Active”. The Activity [17] was “inactive”, the Activity (Staphylococcus aureus [18]) was “Active” and the Activity [30] was “Active”. For the same compound, the MIC99 (Escherichia coli [20]) was > 512 µM, the IC50 (THP-1) was > 200 µM and the Activity (Staphylococcus aureus [31]) was “inactive”. For the same compound, the MIC99 [23] was 6.25 µM and the “fold change (FC)” value [24] was 10000.
